The results in this text go back to patent US20140107100A1, “Benzoxazepines as Inhibitors of PI3K/mTOR and Methods of Their Use and Manufacture” (EXELIXIS, INC., priority 2010, published 2014).

For this test, the target named is mTOR/GbL/Raptor (mTORC1) (Homo sapiens, UniProt P42345). The test can be described thus: mTOR/GbL/Raptor (mTORC1) ELISA assay, phosphorylation of 4E-BP1. Format: biochemical. The settings on record: 0.2 nM mTORC1, 40 uM ATP, 50 nM NHis-tagged 4E-BP1, 120 minutes; read-out: IC50 in this assay (mTORC1 ELISA). In a few lines: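 Phospho-4E-BP1 was quantified by luminescent ELISA (anti-phospho-4E-BP1 IgG, HRP-tagged secondary) after capture of the His-tagged substrate on Ni-chelate plates.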
Background: ELISA stands for enzyme-linked immunosorbent assay.
On to `Cc1cc(-c2cnn(C)c2)cc2c1OCCN(c1nc(N)nc(C)c1C(C)C)C2` [Compound 117, 4-methyl-5-(1-methylethyl)-6-[9-methyl-7-(1-methyl-1H-pyrazol-4-yl)-2,3-dihydro-1,4-benzoxazepin-4(5H)-yl]pyrimidin-2-amine], for which the IC50 fell in the range of 100 to 500 nM.

Consider `Cc1ncc(-c2cc(C)c3c(c2)CN(c2nc(N)nc(C)c2C(C)C)CCO3)s1` [Compound 118, 4-methyl-5-(1-methylethyl)-6-[9-methyl-7-(2-methyl-1,3-thiazol-5-yl)-2,3-dihydro-1,4-benzoxazepin-4(5H)-yl]pyrimidin-2-amine], for which the IC50 lay within 100 to 500 nM.

For `CC(=O)NCc1nc(C)c(C(C)C)c(N2CCOc3c(C)cc(-c4cnc5sc(N)nc5c4)cc3C2)n1` [Compound 119, N-({4-[7-(2-amino[1,3]thiazolo[5,4-b]pyridin-6-yl)-9-methyl-2,3-dihydro-1,4-benzoxazepin-4(5H)-yl]-6-methyl-5-(1-methylethyl)pyrimidin-2-yl}methyl)acetamide], the IC50 is no more than 100 nM.

In the case of `Cc1cc(-c2cnc3sc(N)nc3c2)cc2c1OCCN(c1nc(CF)nc(C)c1C(C)C)C2` [Compound 120, 6-{4-[2-(fluoromethyl)-6-methyl-5-(1-methylethyl)pyrimidin-4-yl]-9-methyl-2,3,4,5-tetrahydro-1,4-benzoxazepin-7-yl}[1,3]thiazolo[5,4-b]pyridin-2-amine], the IC50 was no more than 100 nM.

Regarding `Cc1cc(-c2cnc3sc(N)nc3c2)cc2c1OCCN(c1nc(CNC3CC3)nc(C)c1C(C)C)C2` [Compound 121, 6-(4-{2-[(cyclopropylamino)methyl]-6-methyl-5-(1-methylethyl)pyrimidin-4-yl}-9-methyl-2,3,4,5-tetrahydro-1,4-benzoxazepin-7-yl)[1,3]thiazolo[5,4-b]pyridin-2-amine], the IC50 is no more than 100 nM.

Consider `C=C(C)c1c(C)ncnc1N1CCOc2c(C)cc(-c3cnc4sc(N)nc4c3)cc2C1` [Compound 124, 6-{9-methyl-4-[6-methyl-5-(1-methylethenyl)pyrimidin-4-yl]-2,3,4,5-tetrahydro-1,4-benzoxazepin-7-yl}[1,3]thiazolo[5,4-b]pyridin-2-amine], for which the IC50 was no more than 100 nM.

`CC(=O)c1c(C)ncnc1N1CCOc2c(C)cc(-c3cnc4sc(N)nc4c3)cc2C1` [Compound 125, 1-{4-[7-(2-amino[1,3]thiazolo[5,4-b]pyridin-6-yl)-9-methyl-2,3-dihydro-1,4-benzoxazepin-4(5H)-yl]-6-methylpyrimidin-5-yl}ethanone]: the half-inhibitory concentration (IC50) is no more than 100 nM.

With `Cc1cc(-c2cnc3sc(N)nc3c2)cc2c1OCCN(c1nc(CNCCF)nc(C)c1C(C)C)C2` [Compound 126, 6-{4-[2-{[(2-fluoroethyl)amino]methyl}-6-methyl-5-(1-methylethyl)pyrimidin-4-yl]-9-methyl-2,3,4,5-tetrahydro-1,4-benzoxazepin-7-yl}[1,3]thiazolo[5,4-b]pyridin-2-amine], the IC50 is no more than 100 nM.

Consider `COCCc1c(C)nc(CN2CCCC2)nc1N1CCOc2c(C)cc(-c3cnc4sc(N)nc4c3)cc2C1` [Compound 127, 6-(9-methyl-4-{6-methyl-5-[2-(methyloxy)ethyl]-2-(pyrrolidin-1-ylmethyl)pyrimidin-4-yl}-2,3,4,5-tetrahydro-1,4-benzoxazepin-7-yl)[1,3]thiazolo[5,4-b]pyridin-2-amine], for which the IC50 was no more than 100 nM.

With `Cc1cc(-c2cnc3sc(N)nc3c2)cc2c1OCCN(c1nc(C(F)(F)F)nc(C)c1C(C)C)C2` [Compound 128, 6-{9-methyl-4-[6-methyl-5-(1-methylethyl)-2-(trifluoromethyl)pyrimidin-4-yl]-2,3,4,5-tetrahydro-1,4-benzoxazepin-7-yl}[1,3]thiazolo[5,4-b]pyridin-2-amine], the IC50 is no more than 100 nM.

For `COCCc1c(C)ncnc1N1CCOc2c(C)cc(-c3cnc4sc(N)nc4c3)cc2C1` [Compound 129, 6-(9-methyl-4-{6-methyl-5-[2-(methyloxy)ethyl]pyrimidin-4-yl}-2,3,4,5-tetrahydrio-1,4-benzoxazepin-7-yl)[1,3]thiazolo[5,4-b]pyridin-2-amine], the IC50 is no more than 100 nM.

Consider `C=C(C)c1c(C)nc(N)nc1N1CCOc2c(C)cc(-c3cnc4sc(N)nc4c3)cc2C1` [Compound 130, 6-{4-[2-amino-6-methyl-5-(1-methylethenyl)pyrimidin-4-yl]-9-methyl-2,3,4,5-tetrahydro-1,4-benzoxazepin-7-yl}[1,3]thiazolo[5,4-b]pyridin-2-amine], for which the IC50 was no more than 100 nM.

Regarding `Cc1cc(-c2cnc3sc(N)nc3c2)cc2c1OCCN(c1ncnc(Cl)c1C(C)(C)O)C2` [Compound 131, 2-{4-[7-(2-amino[1,3]thiazolo[5,4-b]pyridin-6-yl)-9-methyl-2,3-dihydro-1,4-benzoxazepin-4(5H)-yl]-6-chloropyrimidin-5-yl}propan-2-ol], the IC50 was in the range of 100 to 500 nM.

As to `COCCc1c(C)nc(C)nc1N1CCOc2c(C)cc(-c3cnc4sc(N)nc4c3)cc2C1` [Compound 132, 6-(4-{2,6-dimethyl-5-[2-(methyloxy)ethyl]pyrimidin-4-yl}-9-methyl-2,3,4,5-tetrahydro-1,4-benzoxazepin-7-yl)[1,3]thiazolo[5,4-b]pyridin-2-amine], the IC50 was no more than 100 nM.

With `Cc1cc(-c2cnc3sc(N)nc3c2)cc2c1OCCN(c1nc(C3CNC3)nc(C)c1C(C)C)C2` [Compound 133, 6-{4-[2-azetidin-3-yl-6-methyl-5-(1-methylethyl)pyrimidin-4-yl]-9-methyl-2,3,4,5-tetrahydro-1,4-benzoxazepin-7-yl}[1,3]thiazolo[5,4-b]pyridin-2-amine], the IC50 was no more than 100 nM.

Regarding `Cc1cc(-c2cnc3sc(N)nc3c2)cc2c1OCCN(c1nc(CN)nc(C)c1C(C)C)C2` [Compound 134, 6-{4-[2-(aminomethyl)-6-methyl-5-(1-methylethyl)pyrimidin-4-yl]-9-methyl-2,3,4,5-tetrahydro-1,4-benzoxazepin-7-yl}[1,3]thiazolo[5,4-b]pyridin-2-amine], the IC50 is no more than 100 nM.

For `COCCc1cnc(C)nc1N1CCOc2c(C)cc(-c3cnc4sc(N)nc4c3)cc2C1` [Compound 135, 6-(9-methyl-4-{2-methyl-5-[2-(methyloxy)ethyl]pyrimidin-4-yl}-2,3,4,5-tetrahydro-1,4-benzoxazepin-7-yl)[1,3]thiazolo[5,4-b]pyridin-2-amine], the IC50 is no more than 100 nM.

Take `CNCc1nc(C)c(C(C)C)c(N2CCOc3c(C)cc(-c4cnc5sc(N)nc5c4)cc3C2)n1` [Compound 136, 6-(9-methyl-4-{6-methyl-2-[(methylamino)methyl]-5-(1-methylethyl)pyrimidin-4-yl}-2,3,4,5-tetrahydro-1,4-benzoxazepin-7-yl)[1,3]thiazolo[5,4-b]pyridin-2-amine]: the IC50 is no more than 100 nM.

In the case of `Cc1cc(-c2nnc(N)s2)cc2c1OCCN(c1nc(N)nc(C)c1C(C)C)C2` [Compound 137, 4-[7-(5-amino-1,3,4-thiadiazol-2-yl)-9-methyl-2,3-dihydro-1,4-benzoxazepin-4(5H)-yl]-6-methyl-5-(1-methylethyl)pyrimidin-2-amine], the IC50 is no more than 100 nM.

As to `C#CCc1c(C)nc(C)nc1N1CCOc2c(C)cc(-c3cnc4sc(N)nc4c3)cc2C1` [Compound 138, 6-[4-(2,6-dimethyl-5-prop-2-yn-1-ylpyrimidin-4-yl)-9-methyl-2,3,4,5-tetrahydro-1,4-benzoxazepin-7-yl][1,3]thiazolo[5,4-b]pyridin-2-amine], the IC50 was no more than 100 nM.

With `Cc1cc(-c2cnc3sc(N)nc3c2)cc2c1OCCN(c1nc(N3CC(O)C3)nc(C)c1C(C)C)C2` [Compound 139, 1-{4-[7-(2-amino[1,3]thiazolo[5,4-b]pyridin-6-yl)-9-methyl-2,3-dihydro-1,4-benzoxazepin-4(5H)-yl]-6-methyl-5-(1-methylethyl)pyrimidin-2-yl}azetidin-3-ol], the IC50 was no more than 100 nM.

As to `COc1cc(-c2cnc3sc(N)nc3c2)cc2c1OCCN(c1nc(N)nc(C)c1C(C)C)C2` [Compound 140, 6-{4-[2-amino-6-methyl-5-(1-methylethyl)pyrimidin-4-yl]-9-(methyloxy)-2,3,4,5-tetrahydro-1,4-benzoxazepin-7-yl}[1,3]thiazolo[5,4-b]pyridin-2-amine], the IC50 lay in the range of 100 to 500 nM.

Take `CC#CCc1c(C)nc(C)nc1N1CCOc2c(C)cc(-c3cnc4sc(N)nc4c3)cc2C1` [Compound 141, 6-[4-(5-but-2-yn-1-yl-2,6-dimethylpyrimidin-4-yl)-9-methyl-2,3,4,5-tetrahydro-1,4-benzoxazepin-7-yl][1,3]thiazolo[5,4-b]pyridin-2-amine]: the IC50 was no more than 100 nM.

`COC(C)c1c(C)nc(C)nc1N1CCOc2c(C)cc(-c3cnc4sc(N)nc4c3)cc2C1` (stereo not drawn) [Compound 142, 6-(4-{2,6-dimethyl-5-[1-(methyloxy)ethyl]pyrimidin-4-yl}-9-methyl-2,3,4,5-tetrahydro-1,4-benzoxazepin-7-yl)[1,3]thiazolo[5,4-b]pyridin-2-amine]: the IC50 was no more than 100 nM.

As to `COCc1c(C)nc(C)nc1N1CCOc2c(C)cc(-c3cnc4sc(N)nc4c3)cc2C1` [Compound 143, 6-(4-{2,6-dimethyl-5-[(methyloxy)methyl]pyrimidin-4-yl}-9-methyl-2,3,4,5-tetrahydro-1,4-benzoxazepin-7-yl)[1,3]thiazolo[5,4-b]pyridin-2-amine], the IC50 is no more than 100 nM.

As for `Cc1cc(-c2cnc3sc(N)nc3c2)cc2c1OCCN(c1nc(C(F)F)nc(C)c1C(C)C)C2` [Compound 144, 6-{4-[2-(difluoromethyl)-6-methyl-5-(1-methylethyl)pyrimidin-4-yl]-9-methyl-2,3,4,5-tetrahydro-1,4-benzoxazepin-7-yl}[1,3]thiazolo[5,4-b]pyridin-2-amine], the IC50 is no more than 100 nM.

Regarding `C#Cc1c(C)nc(N)nc1N1CCOc2c(C)cc(-c3cnc4sc(N)nc4c3)cc2C1` [Compound 145, 6-[4-(2-amino-5-ethynyl-6-methylpyrimidin-4-yl)-9-methyl-2,3,4,5-tetrahydro-1,4-benzoxazepin-7-yl][1,3]thiazolo[5,4-b]pyridin-2-amine], the IC50 was no more than 100 nM.

The term IC50 denotes the point on the concentration scale where inhibition reaches its midpoint.
